Measured values reported in US12479794B2, “Acetophenone oxime compound and application thereof” (Medshine Discovery Inc., priority 2020, dated 2025).

Legend:
[1] = tested on: ischemia-reperfusion cerebral infarction model; test: Ischemia-reperfusion cerebral infarction (MCAO) model in male SD rats; assay type: in vivo; conditions: 90-min MCAO ischemia-reperfusion, 1 mg/kg tail vein after reperfusion, model group 32.4%, P<0.05 vs. model group
From the text: Assay Example 3: Pharmacodynamic Evaluation of the Compound in Ischemia-Reperfusion Cerebral Infarction Model in Male SD Rats Object of the assay: pharmacodynamic assay to explore the improvement of compound 32 on the ischemia-reperfusion cerebral infarction model in rats Materials of the assay: male SD rats (250 g-280 g, SPF grade, Zhejiang Vital River Laboratory Animal Technology Co., Ltd.) • 1) Anesthesia: Respiratory anesthesia with 2.5% isoflurane was used to maintain the depth of anesthesia for animals. • 2) Middle Cerebral Artery Occlusion (MCAO) Model: Animals weighed in the range of 250-280 g at the time of modeling surgery. […] For the administration of the assay sample group, compound 32 was injected through the tail vein of rats after reperfusion with a dose of 1 mg/kg and a volume of 5 mL/kg. • 3) Success criteria for the model: • 1: Within 60 minutes after surgery, the animals were scored according to the Bederson method, and the animals with a score of 2-3 were included in the group. • 2: Within 30-60 minutes of modeling, if the cerebral blood flow on the model side (left side) was reduced by more than 30% compared with that on the right side, the model was considered successful, and the animal was included in the group. […]

[2] = Pharmacokinetic evaluation in SD rats (iv and oral); assay type: in vivo, Sprague Dawley rats; conditions: male, Sprague-Dawley, rat, plasma, iv 1.0, po 2.0 mg/kg
Description: Assay Example 2: Pharmacokinetic Evaluation of Compounds in Rats
Object of the assay: To evaluate the in vivo pharmacokinetics of the compounds in SD rats
Sprague Dawley rats (male, 200-300 g, 7-9 weeks old, Shanghai SLAC)
The pharmacokinetic characteristics of the compounds in rodents after intravenous injection and oral administration were assayed according to the standard protocol. In the assay, the candidate compounds were formulated into clear solutions and administered to rats by single intravenous injection and oral administration. The vehicle for intravenous injection and oral administration was DMSO and 10% hydroxypropyl β-cyclodextrin in water (DMSO:10% hydroxypropyl β-cyclodextrin in water=5:95). Whole blood samples were collected within 48 hours, and centrifuged at 3000 g for 15 minutes. The supernatant was separated to give plasma samples. 4 times the volume of acetonitrile solution containing internal standard was added to precipitate protein. The resulting mixture was centrifuged and the supernatant was taken out. An equal volume of water was added and the mixture was centrifuged. The supernatant was taken out, and injected as a sample to quantitatively analyze the plasma drug concentration by LC-MS/MS analysis method. The pharmacokinetic parameters, such as peak concentration, time to peak, clearance rate, half-life, area under drug-time curve, bioavailability, etc., were calculated.

S1P1 = target: T1, S1P1 (Homo sapiens, UniProt P21453); test: In vitro agonistic activity on S1P1, U2OS-EDG1 cells, LiveBLAzer FRET B/G; assay type: cell-based
T1 construct: host or cells: U2OS
Description: Assay Example 1: In Vitro Evaluation of the Agonistic Activity of the Compounds of the Present Disclosure on S1P1
Object of the assay: To detect the agonistic activity of compounds on S1P1
• 1. Cells U2OS-EDG1 (Batch No.: Invitrogen-K1520) were taken out of a liquid nitrogen tank and placed in a 37° C. water bath to thaw quickly; • 2. The cell suspension was aspirated into a 15 ml centrifuge tube, resuspended in 5 ml of preheated medium, and centrifuged at 1000 rpm for 5 min; • 3. The supernatant was discarded. The cells were resuspended in 10 ml of medium, transferred into a T75 culture flask, and cultivated in an incubator with 5% CO2 at 37° C. II. Agonist Assay • 1. The compounds were diluted to working concentrations, and serially diluted 3-fold by Echo 555 (manufacturer: Labcyte) to obtain 10 concentrations; 200 nL of each concentration of the compound was transferred to a cell plate and centrifuged at 1000 rpm for 15 seconds; • 2. Culture medium was aspirated from the culture flask; 4 mL of Dulbecco's phosphate buffer (DPBS, supplier: Coring, item No.: 21-031-CVR, batch No.: 03318006) was added, and the residual serum was washed away; 2 mL of trypsin was added; The mixture was incubated in an incubator at 37° C. for 2 min, and the cells were digested; 10 mL of seeding medium was added to resuspend the cells; 0.6 mL of cell suspension was taken out and counted; • 3. The density of cells was adjusted to 1.88E+05 cells/mL using seeding medium, with 40 μL per well (7500\well); 40 μL of FreeStyle™ Expression medium was added around the cell plate; The plate was let stand at room temperature for 15 min and incubated at 37° C. with 5% CO2 for 20 hours. III. Signal Detection • 1. LiveBLAzer™-FRET B/G Substrate (CCF4-AM) assay reagents were formulated according to the instructions; • 2. 8 μL of 6×Substrate Mixture was added to each well of the cell plate; The plate was centrifuged at 1000 rpm for 15 seconds, covered with a film, and incubated at 23° C. for 2 hours; The cell plate was subjected to Envision […] detection. IV. Data Analysis • 1. The raw data were converted into % Effect by using an equation, and the EC50 value can be obtained by curve fitting with four parameters [“log(agonist) vs. response—Variable slope” model in GraphPad Prism]; • 2. Calculation formula: Ratio=(460 nm−blank)/(535 nm−blank) % Effect=(SampleRatio−Ave LCRatio)/(Ave HCRatio−Ave LCRatio)×100%

T1 sequence (P21453 whole entry): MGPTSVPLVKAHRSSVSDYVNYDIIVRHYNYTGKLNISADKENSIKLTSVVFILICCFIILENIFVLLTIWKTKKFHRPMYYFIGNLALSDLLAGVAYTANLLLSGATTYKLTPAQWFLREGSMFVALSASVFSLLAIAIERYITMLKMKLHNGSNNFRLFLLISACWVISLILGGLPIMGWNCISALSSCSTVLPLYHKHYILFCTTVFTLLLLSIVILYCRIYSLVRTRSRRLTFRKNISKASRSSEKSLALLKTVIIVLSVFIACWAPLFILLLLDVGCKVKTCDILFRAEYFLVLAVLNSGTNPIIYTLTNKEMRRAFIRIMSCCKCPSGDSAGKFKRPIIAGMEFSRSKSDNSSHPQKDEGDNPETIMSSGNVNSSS

clearance ([2]; intravenous, read-out: Clearance rate CL): 11.3 mL/min/kg
Vd ([2]; intravenous, read-out: Distribution in tissue Vdss): 4.35 L/kg
bioavailability ([2]; read-out: Bioavailability F): 92.7%
Cmax ([2]; read-out: Peak concentration Cmax): 556 nM
AUC(0-t) ([2]; po, 2 mg/kg, PO, read-out: Area under drug-time curve AUC0-last PO): 5.47 µM·h
half-life ([2]; po, 2 mg/kg, PO, read-out: Half life T1/2 (PO) (converted)): 5.44 h
EC50 (S1P1): 2.3 nM
Emax (S1P1; % Effect): 98.6%
Compound: C/C(=N\OCc1ccc(OC(C)C)c(C(F)(F)F)c1)c1ccc2c(c1)CCC2N1CC(C(=O)O)C1 (stereo not drawn) [Compound 32]
Percentage of left cerebral infarct area [1]: 21.0%
